# Reference: ChEMBL document CHEMBL3421576, “N-((1,3-Diphenyl-1H-pyrazol-4-yl)methyl)anilines: A novel class of anti-RSV agents” (Bioorg Med Chem Lett, 2015)
# Key:
# [1] = tested on: Respiratory syncytial virus; experiment: Antiviral activity against RSV infected in African green monkey Vero 76 cells after 5 days by plaque reduction assay; assay type: functional, organism-based
# [2] = Cytotoxicity against hamster BHK21 cells assessed as cell viability after 72 hrs by MTT method; assay type: cell-based, Mesocricetus auratus, BHK-21
# [3] = Cytotoxicity against human MT4 cells assessed as cell viability after 96 hrs by MTT method; assay type: cell-based
# [4] = tested on: Bovine viral diarrhea virus 1; experiment: Antiviral activity against BVDV infected in bovine MDBK cells assessed as protection against viral-induced cytopathogenecity after 3 to 4 days by MTT method; assay type: functional, organism-based
# [5] = Cytotoxicity against African green monkey Vero 76 cells assessed as cell viability after 48 to 96 hrs by MTT method; assay type: cell-based; conditions: chlorocebus sabaeus
# [6] = Cytotoxicity against bovine MDBK cells assessed as cell viability after 72 hrs by MTT method; assay type: cell-based, Bos taurus; conditions: cattle
# [7] = tested on: Mammalian orthoreovirus 1; experiment: Antiviral activity against Reovirus 1 infected in hamster BHK21 cells assessed as protection against viral-induced cytopathogenecity after 3 to 4 days by MTT method; assay type: functional, cell-based; conditions: Mammalian orthoreovirus 1, BHK-21
# Human alphaherpesvirus 1 = experiment: Antiviral activity against HSV1 infected in African green monkey Vero 76 cells after 3 days by plaque reduction assay; assay type: functional, organism-based
# Yellow fever virus = experiment: Antiviral activity against YFV infected in hamster BHK21 cells assessed as protection against viral-induced cytopathogenecity after 3 to 4 days by MTT method; assay type: functional, organism-based, BHK-21
# [8] = tested on: Vesicular stomatitis virus; experiment: Antiviral activity against VSV infected in African green monkey Vero 76 cells after 2 days by plaque reduction assay; assay type: functional, organism-based
# Vaccinia virus = experiment: Antiviral activity against Vaccinia virus infected in African green monkey Vero 76 cells after 3 days by plaque reduction assay; assay type: functional, organism-based, Orthopoxvirus vaccinia
# [9] = tested on: Human immunodeficiency virus 1; experiment: Antiviral activity against HIV1 infected in human MT4 cells assessed as protection against viral-induced cytopathogenecity after 4 days by MTT method; assay type: functional, organism-based; conditions: Human immunodeficiency virus 1, MT4, 96 h
# Coxsackievirus B5 = experiment: Antiviral activity against Coxsackievirus B5 infected in African green monkey Vero 76 cells after 3 days by plaque reduction assay; assay type: functional, organism-based
# Enterovirus C = experiment: Antiviral activity against Poliovirus Sb-1 infected in African green monkey Vero 76 cells after 2 days by plaque reduction assay; assay type: functional, organism-based
# [10] = Selectivity index, ratio of CC50 for African green monkey Vero 76 cells to EC50 for RSV infected in African green monkey Vero 76 cells
# [11] = Selectivity index, ratio of CC50 for hamster BHK21 cells to EC50 for YFV infected in hamster BHK21 cells; design: species or system BHK-21
# [12] = Selectivity index, ratio of CC50 for bovine MDBK cells to EC50 for BVDV infected in bovine MDBK cells
# [13] = human respiratory syncytial virus, Vero, 120 h
# [14] = Bovine viral diarrhea virus isolates and strains, MDBK
# [15] = Human alphaherpesvirus 1, Vero, 72 h
# [16] = Vesicular stomatitis virus, Vero, 48 h
# [17] = Orthopoxvirus vaccinia, Vero, 72 h
# [18] = Enterovirus C, Sb-1, Vero, 48 h
SMILES,"EC50 [1, 13] [µM]",CC50 at 72 h [2] [µM],CC50 at 96 h [3] [µM],"EC50 [4, 14] [µM]",CC50 ([5]; Vero 76 cells) [µM],CC50 at 72 h [6] [µM],EC50 [7] [µM],EC50 (Human alphaherpesvirus 1; [15]) [µM],"EC50 (Yellow fever virus; Yellow fever virus, BHK-21) [µM]","EC50 [8, 16] [µM]",EC50 (Vaccinia virus; [17]) [µM],EC50 [9] [µM],"EC50 (Coxsackievirus B5; Enterovirus B, Vero, 72 h) [µM]",EC50 (Enterovirus C; [18]) [µM],Ratio CC50/EC50 [10],also measured
FC(F)(F)c1ccc(NCc2cn(-c3ccccc3)nc2-c2ccc(C(F)(F)F)cc2)cc1,> 26,27,> 100,> 26,26,26,> 27,> 26,> 37,> 26,> 26,> 100,> 26,> 26,,
Cc1ccc(-c2nn(-c3ccccc3)cc2CNc2ccc(Cl)cc2)cc1,14,> 100,> 100,> 100,> 100,> 100,> 100,> 100,34,> 100,> 100,> 100,> 100,> 100,>7.1,Ratio CC50/EC50 [11]: >2.9
O=c1cnn([C@@H]2O[C@H](CO)[C@@H](O)[C@H]2O)c(=O)[nH]1 [6-AZAURIDINE],0.9,> 100,,,10,,,,46,,,,,,11.1,Ratio CC50/EC50 [11]: >2.2
Brc1ccc(NCc2cn(-c3ccccc3)nc2-c2ccc(Br)cc2)cc1,8,> 100,> 100,> 100,88,> 100,> 100,> 88,54,> 88,> 88,> 100,> 88,> 88,11,Ratio CC50/EC50 [11]: >1.8
FC(F)(F)c1ccc(-c2nn(-c3ccccc3)cc2CNc2ccc(Cl)cc2)cc1,> 10,31,> 100,> 44,10,44,> 31,> 80,> 31,> 80,> 80,> 100,> 80,> 80,,
Cc1ccc(-c2nn(-c3ccccc3)cc2CNc2ccc(Br)cc2)cc1,11,> 100,> 100,> 100,92,> 100,> 100,> 92,> 100,> 92,> 92,> 100,> 92,> 92,8.4,
Brc1ccc(-c2nn(-c3ccccc3)cc2CNc2ccccc2)cc1,9,> 100,> 100,> 100,52,> 100,> 100,> 52,20,> 52,> 52,> 100,> 52,> 52,5.8,Ratio CC50/EC50 [11]: >5
Clc1ccc(NCc2cn(-c3ccccc3)nc2-c2ccccc2)cc1,6,> 100,> 100,29,65,> 100,> 100,> 65,29,> 65,> 65,> 100,> 65,> 65,10.8,Ratio CC50/EC50 [12]: >3.4
Cc1ccc(NCc2cn(-c3ccccc3)nc2-c2ccc(Cl)cc2)cc1,13,> 100,> 100,55,> 100,> 100,> 100,> 100,> 100,> 100,> 100,> 100,> 100,> 100,>7.7,Ratio CC50/EC50 [12]: >1.8
FC(F)(F)c1ccc(-c2nn(-c3ccccc3)cc2CNc2ccc(Br)cc2)cc1,5,28,> 100,> 64,17,64,> 28,> 17,> 28,> 17,> 17,> 100,> 17,> 17,3.4,
C[C@@]1(O)[C@H](O)[C@@H](CO)O[C@H]1n1ccc(N)nc1=O,,> 100,,,,,6,,,,,,,,,
Clc1ccc(NCc2cn(-c3ccccc3)nc2-c2ccc(Br)cc2)cc1,,,,,,,,,,,,,,,>11.1,EC50 ([1]; vero): 9 µM; EC50 ([4]; mdbk): ≥ 100 µM; CC50 ([5]; vero 76): > 100 µM; EC50 (Human alphaherpesvirus 1; vero): > 100 µM; EC50 (Yellow fever virus; bhk-21): 43 µM; Ratio CC50/EC50 [11]: >2.3; EC50 ([8]; vero): > 100 µM; EC50 (Vaccinia virus; vero): > 100 µM; EC50 (Coxsackievirus B5; vero): > 100 µM; EC50 (Enterovirus C; vero): > 100 µM
Cc1ccc(NCc2cn(-c3ccccc3)nc2-c2ccc(Br)cc2)cc1,11,> 100,> 100,> 100,> 100,> 100,> 100,> 100,> 100,> 100,> 100,> 100,> 100,> 100,>9.1,
COc1c(C)c2c(c(O)c1C/C=C(\C)CCC(=O)O)C(=O)OC2 [MYCOPHENOLIC ACID],,,,,19,,,,,,1.5,,,,,
Cc1ccc(-c2nn(-c3ccccc3)cc2CNc2ccccc2)cc1,23,> 100,> 100,> 100,52,> 100,> 100,> 52,38,> 52,> 52,> 100,> 52,> 52,2.3,Ratio CC50/EC50 [11]: >2.6
Nc1nc2c(ncn2COCCO)c(=O)[nH]1 [ACYCLOVIR],,,,,> 100,,,2.8,,,,,,,,
Cc1ccc(NCc2cn(-c3ccccc3)nc2-c2ccc(C)cc2)cc1,28,> 100,> 100,> 100,> 100,> 100,> 100,> 100,> 100,> 100,> 100,> 100,> 100,> 100,>3.6,
NC(=O)c1ncn([C@@H]2O[C@H](CO)[C@@H](O)[C@H]2O)n1 [RIBAVIRIN],35,,,19,> 100,57,,,,,,,,,>2.8,Ratio CC50/EC50 [12]: 3
Cc1ccc(-c2nn(-c3ccccc3)cc2CNc2ccc(C(F)(F)F)cc2)cc1,> 45,88,> 100,> 100,45,> 100,> 88,> 45,> 100,> 45,> 45,> 100,> 45,> 45,,
FC(F)(F)c1ccc(NCc2cn(-c3ccccc3)nc2-c2ccc(Br)cc2)cc1,> 28,20,> 100,> 46,28,46,> 20,> 28,> 28,> 28,> 28,> 100,> 28,> 28,,
FC(F)(F)c1ccc(NCc2cn(-c3ccccc3)nc2-c2ccc(Cl)cc2)cc1,> 18,17,> 100,> 31,18,31,> 17,> 18,> 17,> 18,> 18,> 100,> 18,> 18,,
Cc1cc(CCCOc2c(C)cc(-c3noc(C(F)(F)F)n3)cc2C)on1 [PLECONARIL],,,,,80,,,,,,,,0.005,2.2,,
FC(F)(F)c1ccc(NCc2cn(-c3ccccc3)nc2-c2ccccc2)cc1,> 17,37,> 100,> 34,17,34,> 37,> 75,> 37,> 75,> 75,> 100,> 75,> 75,,
